This passage reports IC50 results from BindingDB's records for patent US20240148821 (Chugai Seiyaku Kabushiki Kaisha, 2024).

SMILES strings stand for the structures. pIC50: −log10 of the molar value. Numbered stars: 1 amine (or outer) side, 2 acyl side, 3 side chain; on linkers, the order of the positions; unused ones are H or OH. Bridge positions count the residues as written; N and C are the ends. Square brackets hold non-standard residues; d marks the D form. Peptide text beside a SMILES is read from it. * marks the point of attachment. hPhe(3-Cl-4-CF3) = N[C@@H](CCc1ccc(C(F)(F)F)c(Cl)c1)C(=O)O; hPhe(3-F,4-CF3) = N[C@@H](CCc1ccc(C(F)(F)F)c(F)c1)C(=O)O; X134 = CN([C@@H](Cc1ccc(C#N)nc1)C(=O)[*:2])[*:1]; NMeTyr(3-F) = CN[C@@H](Cc1ccc(O)c(F)c1)C(=O)O; NMeGly(cBu) = CN[C@H](C(=O)O)C1CCC1; NMeCha = CN[C@@H](CC1CCCCC1)C(=O)O; cisHyp = O=C(O)[C@@H]1C[C@H](O)CN1; X108 = O=C(CN(c1ccsc1)[*:1])[*:2]; NMeChg = CN[C@H](C(=O)O)C1CCCCC1; NMeD = CN[C@@H](CC(=O)O)C(=O)O; NMeL = CN[C@@H](CC(C)C)C(=O)O; NMeA = CN[C@@H](C)C(=O)O; Piperidide = C1CCN(*)CC1; Ac5c = NC1(C(=O)O)CCCC1; Nlys = NCCCCNCC(=O)O; Meb = Cc1ccc(C*)cc1; Sar = CNCC(=O)O

For the assay, the target named is GTPase KRas (G12D) and Son of Sevenless Homolog 1 (SOS) (Homo sapiens, UniProt P01116, G12D). In words: AlphaScreen Assay.
Sequence of GTPase KRas (G12D) and Son of Sevenless Homolog 1 (SOS) (P01116 whole entry G12D): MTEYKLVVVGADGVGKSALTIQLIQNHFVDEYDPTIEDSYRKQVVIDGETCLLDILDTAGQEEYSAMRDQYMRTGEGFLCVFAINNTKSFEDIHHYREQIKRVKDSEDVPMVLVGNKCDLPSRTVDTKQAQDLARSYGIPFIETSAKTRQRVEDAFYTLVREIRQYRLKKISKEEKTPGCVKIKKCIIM
Sequence of GTPase KRas (G12D) and Son of Sevenless Homolog 1 (SOS) (Q07889 whole entry, further chain): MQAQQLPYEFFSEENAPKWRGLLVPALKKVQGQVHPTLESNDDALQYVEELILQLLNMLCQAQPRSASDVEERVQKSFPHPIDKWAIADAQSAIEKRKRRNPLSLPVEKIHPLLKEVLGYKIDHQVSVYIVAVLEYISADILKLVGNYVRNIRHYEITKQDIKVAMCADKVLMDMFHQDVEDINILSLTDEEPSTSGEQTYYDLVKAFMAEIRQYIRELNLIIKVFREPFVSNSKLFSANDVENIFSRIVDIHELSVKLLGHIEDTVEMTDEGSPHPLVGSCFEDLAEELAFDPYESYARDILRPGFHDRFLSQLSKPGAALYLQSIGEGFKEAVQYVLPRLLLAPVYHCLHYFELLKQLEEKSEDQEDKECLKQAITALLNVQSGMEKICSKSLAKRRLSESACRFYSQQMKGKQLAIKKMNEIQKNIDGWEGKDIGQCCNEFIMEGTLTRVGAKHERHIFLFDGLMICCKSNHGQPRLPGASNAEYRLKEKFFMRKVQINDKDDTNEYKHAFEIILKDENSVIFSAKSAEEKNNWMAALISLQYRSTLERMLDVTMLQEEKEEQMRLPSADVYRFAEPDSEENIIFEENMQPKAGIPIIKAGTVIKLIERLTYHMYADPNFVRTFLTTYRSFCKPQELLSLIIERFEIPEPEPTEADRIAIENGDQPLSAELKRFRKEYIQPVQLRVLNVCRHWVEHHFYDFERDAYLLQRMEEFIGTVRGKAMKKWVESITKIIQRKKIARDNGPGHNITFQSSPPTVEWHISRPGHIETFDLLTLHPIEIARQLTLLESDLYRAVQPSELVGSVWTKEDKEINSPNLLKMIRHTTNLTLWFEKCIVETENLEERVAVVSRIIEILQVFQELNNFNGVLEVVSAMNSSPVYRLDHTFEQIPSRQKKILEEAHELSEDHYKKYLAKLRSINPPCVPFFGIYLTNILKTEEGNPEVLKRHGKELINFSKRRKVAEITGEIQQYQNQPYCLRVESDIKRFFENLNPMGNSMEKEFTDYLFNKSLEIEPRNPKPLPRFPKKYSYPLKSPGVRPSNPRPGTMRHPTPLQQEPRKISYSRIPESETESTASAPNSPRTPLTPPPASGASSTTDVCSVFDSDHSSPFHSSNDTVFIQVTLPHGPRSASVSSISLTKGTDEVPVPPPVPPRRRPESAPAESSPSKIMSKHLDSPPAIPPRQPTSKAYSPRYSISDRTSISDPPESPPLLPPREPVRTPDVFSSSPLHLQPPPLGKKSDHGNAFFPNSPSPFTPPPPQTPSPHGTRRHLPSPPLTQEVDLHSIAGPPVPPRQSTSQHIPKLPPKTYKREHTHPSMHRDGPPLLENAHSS
Experimental: Protein-protein interaction inhibition (PPI) between Kras and SOS1 was measured by energy transfer from nickel-conjugated donor beads to streptavidin-conjugated acceptor beads using biotin-tagged human Kras expressed in E. coli and loaded with GDP after purification and His-tagged human SOS1 enzyme. This measurement utilizes the phenomenon in which donor beads are irradiated with light at 680 nm, such that energy is transferred to acceptor beads through singlet oxygen and light at 520-620 nm is detected from the acceptor beads.
The term pIC50 denotes the IC50 on a negative log10 scale, so that one unit is a factor of ten. Low readings indicate a large IC50, high ones a small IC50. In turn, `CC[C@H](C)[C@@H]1NC(=O)[C@H](CC(C)C)N(C)C(=O)C[C@@H](C(=O)N2CCCCC2)N(C)C(=O)[C@H](CC(C)C)N(C)C(=O)C2(CCCC2)NC(=O)[C@@H]2C[C@H](OCc3ccc(C)cc3)CN2C(=O)[C@H](CCc2ccc(C(F)(F)F)c(F)c2)NC(=O)CN(C)C(=O)[C@H](CC2CCCCC2)N(C)C(=O)CN(C)C(=O)CN(C)C1=O` [US20240148821, Compound 2140] ([NMeL]I[Sar][Sar][NMeCha][Sar][hPhe(3-F,4-CF3)][cisHyp](Meb)[Ac5c][NMeL][NMeD]-Piperidide; lactam N-11) gave a pIC50 of 7.49.

`CC[C@H](C)[C@@H]1NC(=O)[C@H](C)N(C)C(=O)C[C@@H](C(=O)N2CCCCC2)N(C)C(=O)[C@H](C2CCC2)N(C)C(=O)C2(CCCC2)NC(=O)CN(c2ccsc2)C(=O)[C@H](CCc2ccc(C(F)(F)F)c(Cl)c2)NC(=O)CN(C)C(=O)[C@H](CC2CCCCC2)N(C)C(=O)CN(C)C(=O)CN(C)C1=O` [US20240148821, Compound 2149] ([NMeA]I[Sar][Sar][NMeCha][Sar][hPhe(3-Cl-4-CF3)][X108][Ac5c][NMeGly(cBu)][NMeD]-Piperidide; lactam N-11) showed a pIC50 of 8.40.

In the case of `CC[C@H](C)[C@@H]1NC(=O)[C@H](CC(C)C)N(C)C(=O)C[C@@H](C(=O)N2CCCCC2)N(C)C(=O)[C@H](C2CCCCC2)N(C)C(=O)C2(CCCC2)NC(=O)[C@H](Cc2ccc(C#N)nc2)N(C)C(=O)[C@H](CCc2ccc(C(F)(F)F)c(Cl)c2)NC(=O)CN(C)C(=O)[C@H](CC2CCCCC2)N(C)C(=O)CN(C)C(=O)CN(C)C1=O` [US20240148821, Compound 2169] ([NMeL]I[Sar][Sar][NMeCha][Sar][hPhe(3-Cl-4-CF3)][X134][Ac5c][NMeChg][NMeD]-Piperidide; lactam N-11), the pIC50 is 8.21.

In turn, `CC[C@H](C)[C@@H]1NC(=O)[C@H](CC(C)C)N(C)C(=O)C[C@@H](C(=O)N2CCCCC2)N(C)C(=O)[C@H](C2CCCCC2)N(C)C(=O)C2(CCCC2)NC(=O)[C@H](Cc2ccc(O)c(F)c2)N(C)C(=O)[C@H](CCc2ccc(C(F)(F)F)c(Cl)c2)NC(=O)CN(C)C(=O)[C@H](CC2CCCCC2)N(C)C(=O)CN(C)C(=O)CN(C)C1=O` [US20240148821, Compound 2170] ([NMeL]I[Sar][Sar][NMeCha][Sar][hPhe(3-Cl-4-CF3)][NMeTyr(3-F)][Ac5c][NMeChg][NMeD]-Piperidide; lactam N-11) gave a pIC50 of 7.16. This pIC50 lies 1.05 log units lower than the previous one.

In the case of `CC[C@H](C)[C@@H]1NC(=O)[C@H](CC(C)C)N(C)C(=O)C[C@@H](C(=O)N2CCCCC2)N(C)C(=O)[C@H](C2CCCCC2)N(C)C(=O)C2(CCCC2)NC(=O)CN(CCCCN)C(=O)[C@H](CCc2ccc(C(F)(F)F)c(Cl)c2)NC(=O)CN(C)C(=O)[C@H](CC2CCCCC2)N(C)C(=O)CN(C)C(=O)CN(C)C1=O` [US20240148821, Compound 2186] ([NMeL]I[Sar][Sar][NMeCha][Sar][hPhe(3-Cl-4-CF3)][Nlys][Ac5c][NMeChg][NMeD]-Piperidide; lactam N-11), the pIC50 was 8.12.
